According to paper PMC11198769, “Enhancement of transcription efficiency by TAR-Tat system increases the functional expression of human olfactory receptors” (PLOS ONE, 2024):

What was measured:
Test in all cases: hOR assay (GloSensor cAMP luciferase), dose-response
Assay type in all cases: cell-based
[1] = biological target: T1, OR2B3 (Homo sapiens, UniProt O76000); settings: OR2B3, with or without the TAR-Tat system
T1 construct: Lucy tag (N); FLAG (N); Rho tag (N); expressed in transfected cells; host or cells: Flp-In T-REx-293 cells stably expressing RTP1S, Gαolf and Ric8-b
T1 sequence (O76000 1-313): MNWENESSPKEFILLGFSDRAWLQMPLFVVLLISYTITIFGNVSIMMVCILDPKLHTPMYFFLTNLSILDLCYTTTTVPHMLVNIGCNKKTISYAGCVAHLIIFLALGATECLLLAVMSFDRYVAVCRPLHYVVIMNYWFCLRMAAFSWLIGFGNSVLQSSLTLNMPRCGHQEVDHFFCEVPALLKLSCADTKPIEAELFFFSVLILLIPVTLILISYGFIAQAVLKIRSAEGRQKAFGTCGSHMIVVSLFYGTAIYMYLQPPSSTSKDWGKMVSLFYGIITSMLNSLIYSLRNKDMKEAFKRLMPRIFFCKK
Protocol: (§1) Flp-In T-REx-293 cells stably expressing accessory proteins (RTP1S, Gαolf, and Ric8-b) were established using the Flp-In T-REx system. Accessory proteins-expressing cells were maintained in high-glucose Dulbecco’s modified Eagle medium (Sigma-Aldrich) containing 10% fetal bovine serum (Biowest) and 1% antibiotic–antimycotic (Nacalai tesque) at 37°C with 5% CO2.
(§2) The GloSensor™ Technology (Promega) was used for the luciferase assay of the hOR response. As the negative control, cells that were transfected by the pBApo-CMV neo vector and pHEK293 Ultra Expression Vector I were used as mock cells. hOR/pHEK and hOR/pBApo (50 ng/well) were transfected into the accessory proteins-expressing cell line (40000 cells/well) using Lipofectamine 2000 (Thermo Fisher Scientific) (400 nL/well) along with pGlosensor™-22F cAMP biosensor plasmid (Promega) (50 ng/well) in a 96-well plate. At 28 h posttransfection, the cells were washed with an assay buffer (140 mM NaCl, 10 mM HEPES, 5 mM KCl, 1 mM CaCl2・2H2O, 10 mM D-glucose, pH 7.5) and replaced with the assay buffer (50 μL/well) containing 2% GloSensor cAMP substrate and preincubated for 1 h at 25°C. Then, the assay buffer was added (130 μL/well). After 10 min of equilibration, the luminescence was measured (L0). Odorants diluted in 10% DMSO/assay buffer were treated (20 μL/well). After 9 min, the luminescence was measured (L9min). First, all the L9min values were subtracted by the L0 value (ΔL) and divided by the L0 value (ΔL/L0). The concentration range of the odorants was different for each odorant, but the minimum was 0.01 μM and the maximum was 3 mM. For all hORs, luciferase assays with hOR/pBApo and hOR/pHEK were conducted in the same 96-well plate each time, and luminescence was normalized to a maximum value of 100. Dose–response curve images were graphed using the Graph Pad Prism 9 software (Graph Pad Software).

[2] = biological target: T2, OR2M3 (Homo sapiens, UniProt Q8NG83)
T2 construct: Lucy tag (N); expressed in transfected cells; host or cells: Flp-In T-REx-293 cells stably expressing RTP1S, Gαolf and Ric8-b
T2 sequence (Q8NG83 1-312): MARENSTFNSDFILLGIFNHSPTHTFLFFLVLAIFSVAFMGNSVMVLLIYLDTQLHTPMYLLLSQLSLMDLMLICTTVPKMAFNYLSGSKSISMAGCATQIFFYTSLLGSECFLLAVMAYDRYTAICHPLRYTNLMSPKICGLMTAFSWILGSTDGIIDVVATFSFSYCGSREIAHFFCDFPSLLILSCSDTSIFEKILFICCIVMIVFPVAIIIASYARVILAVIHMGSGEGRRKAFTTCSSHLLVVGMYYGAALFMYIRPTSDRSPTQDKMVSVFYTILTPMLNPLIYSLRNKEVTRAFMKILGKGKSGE
Protocol: as §1, §2

[3] = biological target: T3, OR5K1 (Homo sapiens, UniProt Q8NHB7)
T3 construct: Lucy tag (N); FLAG (N); Rho tag (N); expressed in transfected cells; host or cells: Flp-In T-REx-293 cells stably expressing RTP1S, Gαolf and Ric8-b
T3 sequence (Q8NHB7 1-308): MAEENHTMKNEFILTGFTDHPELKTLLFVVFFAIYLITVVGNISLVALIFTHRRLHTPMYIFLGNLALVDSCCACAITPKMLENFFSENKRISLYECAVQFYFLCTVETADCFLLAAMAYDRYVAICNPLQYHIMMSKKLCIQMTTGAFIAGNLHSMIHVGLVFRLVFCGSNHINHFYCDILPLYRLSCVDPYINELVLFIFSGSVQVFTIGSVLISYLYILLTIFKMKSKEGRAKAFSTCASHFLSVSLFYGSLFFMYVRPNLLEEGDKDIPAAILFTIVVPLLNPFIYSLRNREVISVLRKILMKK
Protocol: as §1, §2

[4] = biological target: T4, OR5M3 (Homo sapiens, UniProt Q8NGP4); settings: OR5M3, with or without the TAR-Tat system
T4 construct: Lucy tag (N); FLAG (N); Rho tag (N); expressed in transfected cells; host or cells: Flp-In T-REx-293 cells stably expressing RTP1S, Gαolf and Ric8-b
T4 sequence (Q8NGP4 1-307): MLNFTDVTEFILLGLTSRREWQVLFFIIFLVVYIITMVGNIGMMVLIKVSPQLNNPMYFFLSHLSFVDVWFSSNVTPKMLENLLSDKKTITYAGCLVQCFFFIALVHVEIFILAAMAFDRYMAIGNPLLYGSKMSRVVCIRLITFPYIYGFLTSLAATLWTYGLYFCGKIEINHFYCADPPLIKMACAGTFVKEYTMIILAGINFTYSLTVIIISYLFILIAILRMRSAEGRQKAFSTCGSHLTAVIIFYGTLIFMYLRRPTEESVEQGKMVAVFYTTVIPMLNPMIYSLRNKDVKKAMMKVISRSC
Protocol: as §1, §2

[5] = biological target: T5, OR8B4 (Homo sapiens, UniProt Q96RC9); settings: OR8B4, with or without the TAR-Tat system
T5 construct: Lucy tag (N); FLAG (N); Rho tag (N); expressed in transfected cells; host or cells: Flp-In T-REx-293 cells stably expressing RTP1S, Gαolf and Ric8-b
T5 sequence (Q96RC9 1-309): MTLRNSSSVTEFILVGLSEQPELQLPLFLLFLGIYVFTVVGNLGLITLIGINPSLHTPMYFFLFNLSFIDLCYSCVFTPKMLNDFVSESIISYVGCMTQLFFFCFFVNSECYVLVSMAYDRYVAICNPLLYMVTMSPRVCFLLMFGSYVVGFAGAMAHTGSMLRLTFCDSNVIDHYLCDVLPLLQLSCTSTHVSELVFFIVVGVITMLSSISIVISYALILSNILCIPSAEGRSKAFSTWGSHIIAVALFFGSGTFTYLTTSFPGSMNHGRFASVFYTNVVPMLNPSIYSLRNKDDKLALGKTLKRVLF
Protocol: as §1, §2

SMILES: CCCCCC=O [n-hexanal]
- concentration-dependent response to n-hexanal [1]: no concentration-dependent response
- mode of action on OR2M3 ([2]; OR2M3/pHEK plasmid): inverse agonist
- suppression of the active response of OR2M3 to agonist ([2]; coadministered with 500 μM 3-mercapto-2-methyl-1-pentanol, OR2M3/pHEK plasmid): suppressed in an n-hexanal concentration-dependent manner
- inhibitory effect on the constitutive activity of OR2M3 (luminescence values) ([2]; with and without the TAR-Tat system): decreased in an n-hexanal concentration-dependent manner only in the case with the TAR-Tat system
- concentration-dependent response to n-hexanal ([3]; OR5K1, with and without the TAR-Tat system): concentration-dependent responses only with the TAR-Tat system
- EC50 ([3]; OR5K1/pHEK (with TAR-Tat system), read-out: EC50 of n-hexanal concentration-response relationship): 11 µM
- concentration-dependent response to n-hexanal [4]: no concentration-dependent response
- concentration-dependent response to n-hexanal [5]: no concentration-dependent response
